For one series, the system named is NIH3T3. Nature of the series: Cytotoxicity against mouse NIH3T3 cells assessed as reduction in cell viability at 100 uM incubated for 4 hrs by MTT assay. In kind it is toxicity, cell-based. Particulars: nih3t3, 4 h. In general terms: Formazan colour is commonly taken as a measure of viable cells.
Another series deals with T1, Androgen receptor (Homo sapiens, UniProt P10275).
T1 sequence (P10275 whole entry): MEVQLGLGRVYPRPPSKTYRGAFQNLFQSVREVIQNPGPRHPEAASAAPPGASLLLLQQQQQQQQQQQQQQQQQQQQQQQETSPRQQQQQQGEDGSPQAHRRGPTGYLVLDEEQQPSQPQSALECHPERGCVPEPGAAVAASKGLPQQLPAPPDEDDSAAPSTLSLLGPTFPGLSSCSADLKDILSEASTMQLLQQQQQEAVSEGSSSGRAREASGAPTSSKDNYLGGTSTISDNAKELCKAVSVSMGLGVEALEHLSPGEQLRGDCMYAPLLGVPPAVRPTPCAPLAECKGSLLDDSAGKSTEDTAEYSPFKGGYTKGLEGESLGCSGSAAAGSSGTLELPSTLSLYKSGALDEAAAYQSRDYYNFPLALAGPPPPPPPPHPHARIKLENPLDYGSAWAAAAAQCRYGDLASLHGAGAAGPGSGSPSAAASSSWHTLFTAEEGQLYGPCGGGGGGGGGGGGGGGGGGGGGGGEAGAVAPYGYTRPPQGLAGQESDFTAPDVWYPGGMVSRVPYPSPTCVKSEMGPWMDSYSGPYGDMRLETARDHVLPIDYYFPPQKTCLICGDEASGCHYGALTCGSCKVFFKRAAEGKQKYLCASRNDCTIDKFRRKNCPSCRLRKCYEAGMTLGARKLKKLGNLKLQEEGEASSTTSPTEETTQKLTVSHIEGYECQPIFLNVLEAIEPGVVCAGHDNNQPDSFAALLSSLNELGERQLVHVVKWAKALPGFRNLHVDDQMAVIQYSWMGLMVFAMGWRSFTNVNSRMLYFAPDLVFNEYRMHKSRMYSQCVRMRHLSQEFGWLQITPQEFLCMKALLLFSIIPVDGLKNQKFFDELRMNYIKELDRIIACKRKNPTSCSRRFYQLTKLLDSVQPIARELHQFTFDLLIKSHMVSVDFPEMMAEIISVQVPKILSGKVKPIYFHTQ
Nature of the series: Antagonist activity against human androgen receptor expressed in human LNCap cells trasfected with ARR2PB-eGFP cells incubated for 3 days by fluorescence based AR transcription assay. Type of series: cell-based.

Series [1] can be described thus: Toxicity in CB17 SCID mouse xenografted with human LNCaP cells assessed as decrease in body weight at 2.5 mg/kg,IT(Intratumoral) administered once in every week for 25 days […]. Type of series: organism-based. Particulars: in vivo, other, 600 h, time 25 day. (In xenograft studies the graft and the host belong to different species.)
Series [2] in a line: Cmax in CB17-SCID mouse mouse at 50 mg/kg, iv. Particulars: in vivo. On the set-up: route intravenous, dose 50 mg/kg. In kind it is ADME, organism-based.
Series [3] in a line: Half life in CB17-SCID mouse mouse at 50 mg/kg, iv. Type of series: ADME, organism-based. Particulars: in vivo.
A short description of series [4]: Volume of distribution in CB17-SCID mouse mouse at 50 mg/kg, iv. Type of series: ADME, organism-based. As to conditions: in vivo.
Series [5] in a line: Clearance in CB17-SCID mouse mouse at 50 mg/kg, iv. In kind it is ADME, organism-based. As to conditions: in vivo.
Series [6] in a line: Inhibition of prostate specific antigen expression in human LNCaP cells expressing ARR2PB-eGFP by immunoassay.

As for `O=S(=O)(Nc1ccc(OCc2ccccc2)cc1)c1ccccc1`, in the series with NIH3T3, the Activity result was “Toxic”.
As a reminder, the IC50 is the midpoint of a concentration-inhibition curve. The low end stands for greater potency in that assay, the high end for weaker potency in that assay. Turning to `CC(=O)N1c2cc(S(=O)(=O)Nc3ccc(OCc4ccccc4)cc3)c(Br)cc2CC1C` (stereo not drawn), the IC50 against Androgen receptor is above 50 µM.
Turning to `CC1NC(=O)NC(=O)C1S(=O)(=O)Nc1ccc(OCc2ccccc2)cc1` (stereo not drawn), the IC50 on Androgen receptor was above 50 µM.
The same measure, in the same setting: the figure for `O=S(=O)(Cc1ccc(Cl)cc1)Nc1ccc(OCc2ccccc2)cc1` is above 50 µM.
`Cc1ccc(S(=O)(=O)Nc2ccc(OCc3ccccc3)cc2)cc1` had an IC50 at Androgen receptor of 11.5 µM.
Still for that read-out and setting: the figure for `Cc1cc(C)c(S(=O)(=O)Nc2ccc(OCc3ccccc3)cc2)c(C)c1` is above 50 µM; for `O=[N+]([O-])c1ccc(CS(=O)(=O)Nc2ccc(OCc3ccccc3)cc2)cc1` it is above 50 µM; for `CC(C)CS(=O)(=O)Nc1ccc(OCc2ccccc2)cc1` it is above 50 µM.
Take `CC(=O)Nc1ccc(S(=O)(=O)Nc2ccc(OCc3ccccc3)cc2)cc1`: the IC50 at Androgen receptor was above 50 µM.
A word on the Cmax: it is the peak of the concentration-time curve. Usually half-life stands for the time in which the quantity being followed falls by half. Broadly, the Vd is a proportionality between amount in the body and measured concentration, not a real space. High values mean wide distribution into tissue, low ones little distribution into tissue. For orientation: clearance means the rate of elimination divided by the concentration. The low end stands for a low capacity for elimination, the high end for a high capacity for elimination. `CN(C)S(=O)(=O)Nc1ccc(OCc2ccccc2)cc1`: the Activity entry in the series on NIH3T3 is reported as “Non-Toxic”; in series [1] it was “Toxic”. The compound further displayed a Cmax in series [2] of 890 ng/mL. Further, the half-life in series [3] was 1.52 h. Further, the Vd in series [4] came to 2.99 L/kg. Also, in series [5], the clearance is 366 mL/min/kg.
At Androgen receptor, `CCOC(=O)c1cn[nH]c1S(=O)(=O)Nc1ccc(OCc2ccccc2)cc1` yielded an IC50 above 50 µM.
On Androgen receptor, `COC(=O)c1sccc1S(=O)(=O)Nc1ccc(OCc2ccccc2)cc1` gave an IC50 above 50 µM.
In turn, `CC(=O)c1ccc(S(=O)(=O)Nc2ccc(OCc3ccccc3)cc2)cc1` registered an IC50 against Androgen receptor above 50 µM.
On the same count and under the same terms, in the case of `Cn1c(=O)n(C)c2cc(S(=O)(=O)Nc3ccc(OCc4ccccc4)cc3)ccc21` it was above 50 µM.
On to `O=S(=O)(Cc1ccccc1)Nc1ccc(OCc2ccccc2)cc1`, for which, in the series on NIH3T3, the Activity result is given as “Non-Toxic”.
Regarding `COc1ccc(CS(=O)(=O)Nc2ccc(OCc3ccccc3)cc2)cc1`, the IC50 against Androgen receptor is above 50 µM.
In the case of `CNC(=O)c1ccc(N2C(=S)N(c3ccc(C#N)c(C(F)(F)F)c3)C(=O)C2(C)C)cc1F` [ENZALUTAMIDE], the Activity result in series [1] is “Toxic”. Besides, in series [6], 0.1 µM corresponded to half-maximal inhibition (IC50).

Source of the values: ChEMBL document CHEMBL5042532, “Discovery of N-(4-(Benzyloxy)-phenyl)-sulfonamide Derivatives as Novel Antagonists of the Human Androgen Receptor Targeting the Activation Function 2” (J Med Chem, 2022).
